Measurements: paper PMC5600900 (Journal of medicinal chemistry, 2016)

These compounds were tested against WT-CXCL12 (Homo sapiens, UniProt P48061) (assay: 2D 1H-15N SOFAST-HMQC NMR titration, binding to WT-CXCL12). Settings: 2D 1H-15N SOFAST-HMQC screen of docking hits.

Row | SMILES | binding to WT-CXCL12 (chemical shift perturbations)
1 | CC(C)O.CCCOc1ccc(C(Nc2ccc(F)cc2)P(=O)(O)O)cc1 (stereo not shown) [compound 6] | induced chemical shift perturbations to residues associated with the I4/I6 binding site
2 | COc1ccc(C2C(C(=O)O)CC(=O)N2Cc2ccsc2)cc1 (stereo not shown) [compound 5] | bind non-specifically
3 | O=C(O)CC1c2ccccc2CCN1C(=O)Nc1cccc(F)c1 (stereo not shown) [compound 7] | induced chemical shift perturbations to residues associated with the I4/I6 binding site
4 | O=C(O)CCn1cc(C(=O)c2ccccc2O)cc1-c1ccncc1 [compound 4] | bind non-specifically
